Experimental data reported in US20220331303A1, “USE OF AN OREXIN 2 RECEPTOR AGONIST FOR THE TREATMENT OF EXCESSIVE SLEEPINESS” (Takeda Pharmaceutical Company Limited, priority 2019, published 2022).

Tested on: sleep-deprived healthy volunteers
Test: Polysomnography (PSG) of recovery sleep after sleep deprivation in healthy volunteers
Format: in vivo, human
Procedure: Exploratory objectives in sleep-deprived healthy volunteers were as follows: • 1. To compare the effects of Compound A (LD and HD) and modafinil (300 mg) on promoting wakefulness as measured by MWT. • 2. To determine PK-PD relationships for selected PD measures. • 3. To evaluate PK-BP relationships in BP change after Compound A administration. • 4. To compare various polysomnography (PSG) parameters between Day −1 (predose) and Day 2 (recovery sleep). • 5. To determine whether there is any difference in the PSG parameters on Day 2 (recovery sleep) between Compound A and placebo or modafinil. • 6. To evaluate the continuous electroencephalogram (EEG) obtained during the MWTs for power spectra changes for Compound A (LD and HD) versus placebo, Compound A (LD and HD) versus modafinil, and modafinil versus placebo.
During the day before dosing on Day 1, participants were administered the KSS at scheduled timepoints. A practice MWT session was performed on Day 1 treatment period 1 (only once during the entire study) to familiarize subjects with the procedures. Study drug was administered in the clinic in the evening on Day 1 of each treatment period. Subjects underwent the MWT and KSS at specified timepoints after the start of the infusion. Subjects were required to stay awake between the MWT tests. Following completion of the IV infusion on Day 2, subjects underwent an additional MWT test. When the final MWT test and cognitive testing were completed, subjects were allowed to sleep (recovery sleep) for approximately 6 hours. PSG recording was collected during this time. Subjects were discharged from the unit after completion on Day 2 with continuing actigraphy upon discharge (to begin on Day −6 before the next treatment period). The interval between each subsequent treatment period was at least 7 days to ensure that the subject's circadian rhythm had returned to a normal cycle. Subject's vital signs, including BP, were monitored during the dosing and testing period. Blood samples for determination of Compound A plasma concentrations were collected at specified timepoints on Days 1 and 2 of each treatment period. Subjects completed the Columbia-Suicide Severity Rating Scale (C-SSRS) during screening, before study drug administration, and before discharge on Day 2 of each treatment period.
The PSGs assess recovery sleep during the day after the end of the sleep deprivation period. There were no corrections for multiple comparisons. […]

[1] = Compound A 112 mg, recovery sleep
[2] = HD: Compound A 112 mg, recovery sleep

COC(=O)N1CCC[C@H](NS(C)(=O)=O)[C@@H]1CO[C@H]1CC[C@@H](c2ccccc2)CC1 [Compound A, methyl (2R,3S)-3-((methylsulfonyl)amino)-2-(((cis-4-phenylcyclohexyl)oxy)methyl)piperidine-1-carboxylate]
PSG N2 latency, LS mean difference vs placebo (Compound A 44 mg, recovery sleep): -2.74 min | PSG REM latency, LS mean difference vs placebo [1]: 29.64 min | PSG stage REM %, LS mean difference vs placebo [1]: −5.66% | PSG stage REM duration, LS mean difference vs placebo [1]: -19.73 min | Stage N3 Duration LS Mean (HD: Compound A 112 mg): 87.23 min | Stage N3 Duration LS Mean Difference vs placebo Estimate (HD: Compound A 112 mg): 5.85 min | Stage REM % LS Mean (HD: Compound A 112 mg): 15.72% | Stage REM % LS Mean Difference vs placebo Estimate (HD: Compound A 112 mg): −5.66% | Stage REM Duration LS Mean (HD: Compound A 112 mg): 46.83 min | Stage REM Duration LS Mean Difference vs placebo Estimate (HD: Compound A 112 mg): -19.73 min | Stage Wake % LS Mean (HD: Compound A 112 mg): 11.14% | Stage Wake % LS Mean Difference vs placebo Estimate (HD: Compound A 112 mg): 0.84% | Stage Wake Duration LS Mean (HD: Compound A 112 mg): 36.46 min | Stage Wake Duration LS Mean Difference vs placebo Estimate (HD: Compound A 112 mg): 0.93 min | Total Arousal Index LS Mean (HD: Compound A 112 mg): 9.18 | Total Arousal Index LS Mean Difference vs placebo Estimate (HD: Compound A 112 mg): −0.81 | Total Arousal LS Mean (HD: Compound A 112 mg): 46.54 | Total Arousal LS Mean Difference vs placebo Estimate (HD: Compound A 112 mg): −3.87 | Total Leg Movements LS Mean (HD: Compound A 112 mg): 16.94 | Total Leg Movements LS Mean Difference vs placebo Estimate (HD: Compound A 112 mg): −2.01 | Total Leg Movements N1 LS Mean (HD: Compound A 112 mg): 1.41 | Total Leg Movements N1 LS Mean Difference vs placebo Estimate (HD: Compound A 112 mg): 0.15 | Total Leg Movements N2 LS Mean (HD: Compound A 112 mg): 7.59 | Total Leg Movements N2 LS Mean Difference vs placebo Estimate (HD: Compound A 112 mg): −0.95 | Total Leg Movements N3 LS Mean (HD: Compound A 112 mg): 2.72 | Total Leg Movements N3 LS Mean Difference vs placebo Estimate (HD: Compound A 112 mg): 1.09 | Total Leg Movements REM LS Mean (HD: Compound A 112 mg): 4.18 | Total Leg Movements REM LS Mean Difference vs placebo Estimate (HD: Compound A 112 mg): −1.57 | Total Leg Movements with Awakening LS Mean (HD: Compound A 112 mg): 0.84 | Total Leg Movements with Awakening LS Mean Difference vs placebo Estimate (HD: Compound A 112 mg): −0.91 | Total Leg Movements with Microarous LS Mean (HD: Compound A 112 mg): 2.14 | Total Leg Movements with Microarous LS Mean Difference vs placebo Estimate (HD: Compound A 112 mg): 0.13 | Total Leg Movements with Resp Event LS Mean (HD: Compound A 112 mg): 0.06 | Total Leg Movements with Resp Event LS Mean Difference vs placebo Estimate (HD: Compound A 112 mg): 0.01 | Total Leg Movements without Arousal LS Mean (HD: Compound A 112 mg): 14.77 | Total Leg Movements without Arousal LS Mean Difference vs placebo Estimate (HD: Compound A 112 mg): −2.15 | Total Recording Time LS Mean (HD: Compound A 112 mg): 351.06 min | Total Recording Time LS Mean Difference vs placebo Estimate (HD: Compound A 112 mg): -5.85 min | Total Sleep Time LS Mean (HD: Compound A 112 mg): 298.98 min | Total Sleep Time LS Mean Difference vs Placebo Estimate (HD: Compound A 112 mg): -10.49 min | Wake After Persistent Sleep LS Mean (HD: Compound A 112 mg): 35.95 min | Wake After Persistent Sleep LS Mean Difference vs placebo Estimate (HD: Compound A 112 mg): 1.33 min | Wake After Sleep Onset LS Mean (HD: Compound A 112 mg): 36.46 min | Wake After Sleep Onset LS Mean Difference vs placebo Estimate (HD: Compound A 112 mg): 0.93 min | PSG Awakenings LS Mean [2]: 5.71 | PSG Awakenings LS Mean Difference vs Placebo Estimate [2]: 1.22 | PSG N1 Latency LS Mean [2]: 2.89 min | PSG N1 Latency LS Mean Difference vs Placebo Estimate [2]: -2.47 min | PSG N2 Latency LS Mean [2]: 4.72 min | PSG N2 Latency LS Mean Difference vs Placebo Estimate [2]: -1.93 min | PSG N3 Latency LS Mean [2]: 15.83 min | PSG N3 Latency LS Mean Difference vs Placebo Estimate [2]: -11.45 min | PSG Per. Slp LS Mean [2]: 4.50 min | PSG Per. Slp LS Mean Difference vs Placebo Estimate [2]: -2.37 min | PSG REM Latency LS Mean [2]: 84.57 min | PSG REM Latency LS Mean Difference vs Placebo Estimate [2]: 29.64 min | PSG Sleep Efficiency LS Mean [2]: 84.65% | PSG Sleep Efficiency LS Mean Difference vs Placebo Estimate [2]: −2.06% | PSG Sleep Onset LS Mean [2]: 2.94 min | PSG Sleep Onset LS Mean Difference vs Placebo Estimate [2]: -1.04 min | PSG Spontaneous Arousal Index LS Mean [2]: 8.26 | PSG Spontaneous Arousal Index LS Mean Difference vs Placebo Estimate [2]: −0.67 | PSG Spontaneous Arousal LS Mean [2]: 41.46 | PSG Spontaneous Arousal LS Mean Difference vs Placebo Estimate [2]: −3.61 | PSG Stage N1 % LS Mean [2]: 6.08% | PSG Stage N1 % LS Mean Difference vs Placebo Estimate [2]: 0.00% | PSG Stage N1 Duration LS Mean [2]: 18.05 min | PSG Stage N1 Duration LS Mean Difference vs Placebo Estimate [2]: -0.35 min | PSG Stage N2 % LS Mean [2]: 48.93% | PSG Stage N2 % LS Mean Difference vs Placebo Estimate [2]: 2.22% | PSG Stage N2 Duration LS Mean [2]: 147.83 min | PSG Stage N2 Duration LS Mean Difference vs Placebo Estimate [2]: 3.76 min
